The text below walks through data of PMC8838583, “Inhibition of Human Monoamine Oxidases A and B by Specialized Metabolites Present in Fresh Common Fruits and Vegetables” (Plants, 2022).

Read-outs that look alike come from different tables or passages of the source.

One data set deals with T1, human MAO-B (Homo sapiens, UniProt P27338).
T1 construct: purchased MilliporeSigma (Milan, Italy); host or cells: baculovirus-infected insect cells (BTI-TN-5B1-4)
T1 sequence (P27338 1-520): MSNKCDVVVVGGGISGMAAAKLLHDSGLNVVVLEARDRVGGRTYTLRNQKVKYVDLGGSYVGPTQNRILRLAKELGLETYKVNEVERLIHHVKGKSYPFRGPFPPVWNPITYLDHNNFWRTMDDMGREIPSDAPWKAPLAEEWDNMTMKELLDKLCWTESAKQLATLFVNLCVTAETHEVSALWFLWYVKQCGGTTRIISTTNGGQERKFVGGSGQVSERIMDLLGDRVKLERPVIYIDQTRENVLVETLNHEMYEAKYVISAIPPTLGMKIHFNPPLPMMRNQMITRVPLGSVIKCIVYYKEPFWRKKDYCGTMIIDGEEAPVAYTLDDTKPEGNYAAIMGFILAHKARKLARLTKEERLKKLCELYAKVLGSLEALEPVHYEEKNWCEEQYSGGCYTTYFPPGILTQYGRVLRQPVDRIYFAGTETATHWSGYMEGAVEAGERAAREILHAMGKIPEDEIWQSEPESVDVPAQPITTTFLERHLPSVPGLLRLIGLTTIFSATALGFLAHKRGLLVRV
Put plainly: MAO-Glo bioluminescent MAO-B inhibition assay. The data set is classed as biochemical. Particulars: for Selectivity of inhibition between MAO-A and MAO-B, in words: comparison of MAO-A and MAO-B IC50 of Table 1.

On the set-up of data set [1]: method as in PMID 21370449. The settings on record: after consumption of an apple smoothie; cited from earlier work.
The next data set concerns the target T2, human MAO-A (Homo sapiens, UniProt P21397).
T2 construct: purchased MilliporeSigma (Milan, Italy); host or cells: baculovirus-infected insect cells (BTI-TN-5B1-4)
T2 sequence (P21397 1-527): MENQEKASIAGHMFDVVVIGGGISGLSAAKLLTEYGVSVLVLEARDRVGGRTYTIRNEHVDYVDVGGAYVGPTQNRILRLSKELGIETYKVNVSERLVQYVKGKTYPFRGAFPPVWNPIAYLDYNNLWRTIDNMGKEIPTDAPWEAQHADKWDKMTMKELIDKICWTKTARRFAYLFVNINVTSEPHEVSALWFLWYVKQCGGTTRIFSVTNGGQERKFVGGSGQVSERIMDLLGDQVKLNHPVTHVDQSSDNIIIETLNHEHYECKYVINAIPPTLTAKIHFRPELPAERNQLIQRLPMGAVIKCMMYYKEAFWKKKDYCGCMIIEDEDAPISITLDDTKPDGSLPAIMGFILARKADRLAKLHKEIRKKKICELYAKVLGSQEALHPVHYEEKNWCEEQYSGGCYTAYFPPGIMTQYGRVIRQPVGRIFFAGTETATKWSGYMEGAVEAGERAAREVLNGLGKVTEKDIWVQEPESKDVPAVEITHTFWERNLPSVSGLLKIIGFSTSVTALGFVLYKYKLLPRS
In words: MAO-Glo bioluminescent MAO-A inhibition assay. It counts as biochemical. Particulars: Table 1.

The mark [2] stands for this setting: Table 1, MAO-Glo, mean of quadruplicate determinations, kiwifruit as mg fruit fresh weight/mL, read-out: IC50 Value MAO-B (mg/mL) (converted).
Where [3] appears, read: Table 1, molarity, standard metabolites, read-out: IC50 Value MAO-B M.
Setting [4] is: molarity, standard metabolites, read-out: IC50 Value MAO-A M.

In the case of `O=C(O)[C@]1(O)C[C@@H](O)[C@@H](O)[C@H](O)C1` [D-(−)-Quinic acid, D-(−)-quinic acid], the results for the IC50 at human MAO-B (setting [2]) and on human MAO-B (setting [3]) were 34.3 mM and 34.4 ± 1.31 mM, respectively. Also, the “Selectivity of inhibition between MAO-A and MAO-B, in words” value on human MAO-B is “selective activity against MAO-B”. Also, the “Level detected in ileostomy fluids” value in data set [1] is ~ 70%.
For (+)-catechin hydrate, the “IC50 Value MAO-B” value against human MAO-B (Table 1, MAO-Glo, mean of quadruplicate determinations, kiwifruit as mg fruit fresh weight/mL) worked out at 1170 ± 40 µg/mL. Besides, the values for the IC50 at human MAO-B (setting [3]) and at human MAO-A (setting [4]) were 4.03 ± 0.122 mM and 6.46 ± 0.121 mM, respectively. Moreover, the “Selectivity of inhibition between MAO-A and MAO-B, in words” value at human MAO-B is “inhibited both enzymes similarly”. The “IC50 Value MAO-A” value against human MAO-A (MAO-Glo, mean of quadruplicate determinations, kiwifruit as mg fruit fresh weight/mL) was found to be 1880 ± 40 µg/mL.
Turning to `O=C(O)/C=C/c1ccc(O)c(O)c1` [Caffeic acid, caffeic acid], the IC50 was 0.444 mM at human MAO-B (setting [2]); 0.439 ± 0.03 mM at human MAO-B (setting [3]); 2.72 mM on human MAO-A (MAO-Glo, mean of quadruplicate determinations, kiwifruit as mg fruit fresh weight/mL, read-out: IC50 Value MAO-A (mg/mL) (converted)); 2.75 ± 0.126 mM at human MAO-A (setting [4]).
Consider `O=c1ccc2cc(O[C@@H]3O[C@H](CO)[C@@H](O)[C@H](O)[C@H]3O)c(O)cc2o1` [Esculin], for which the IC50 at human MAO-B (setting [2]) was 12 mM; at human MAO-B (setting [3]) it was 12.1 ± 0.372 mM; against human MAO-A (IC50 Value MAO-A (mg/mL), MAO-Glo, mean of quadruplicate determinations, kiwifruit as mg fruit fresh weight/mL), 11.5 mM; on human MAO-A (IC50 Value MAO-A M, molarity, standard metabolites), 11.5 ± 0.43 mM. The “Selectivity of inhibition between MAO-A and MAO-B, in words” value on human MAO-B was “inhibited both enzymes similarly”.
